Laboratory results taken from patent publication US10584146B2, “Heme peptide materials for anti-inflammatory regenerative nanobiomedicine” (UCHICAGO ARGONNE, LLC, priority 2016, dated 2020).
“Also recorded” adds a separate entry of the source. The star is where a group is joined. Palmitoyl = CCCCCCCCCCCCCCCC(=O)*

Legend:
[1] = Heme titration, stoichiometry and binding constant analysis (UV/visible)
Procedure: FIGS. 14A-14P depict stoichiometry and binding constant analysis of peptide titrations (0-1000 μM XX in 50 μM titrants) into heme solutions (50 μM) in Hepes buffer (right) or 10 mM NH4OH (left). UV/visible spectroscopy and plots of [Peptide]/[Heme] vs. absorption (λSoret). The solid lines represent the binding constant analysis and were obtained in Origin v9.1 by applying equation 1 (FIG. 15). The following values were fixed: M=5×10^−5 M, 1=0.1 cm. All other values were permitted to float for the first round of analysis. Once n was determined, a common integer was applied to each data set within the conditions employed, e.g. n=3 for HEPES and n=6 for 10 mM NH4OH. The vertical line at x=10 marks the samples that were analyzed further by UV/vis and EPR.
FIG. 15 is the equation employed for stoichiometry and binding constant analysis; the follow variables are used: Ao, initial absorption; ϵB, extinction of bound heme; ϵs, extinction coefficient contribution from scattering; x, ratio of peptide to heme; n, set stoichiometry of peptide to heme; Kd, dissociation (binding) constant M, molar concentration of heme; l, cuvette pathlength.
Sample Preparation. Each peptide (3-4 mg) was dissolved in nanopure water (Millipore A10) to obtain a 1 wt % solution, c16-AAL3K3-CO2H (SEQ ID NO: 9) (1 wt %, 8.9 mM), c16-AHL3K3-CO2H (SEQ ID NO: 3) (1 wt %, 8.4 mM), c16-HHL3K3-CO2H (SEQ ID NO: 4) (1 wt %, 7.9 mM) and c16-MHL3K3-CO2H (SEQ ID NO: 5) (1 wt %, 8.0 mM). Hemin (Porcine, Sigma-Aldrich) was dissolved in DMSO (Sigma Aldrich) to achieve a 10 mM stock solution. Note: He-min/DMSO stock solutions were always made to ensure that the final DMSO concentration in the sam-ple was less than 1% (v/v). Typically, 38 μL of a 1 wt % stock solution was dissolved in 260 μL of ei-ther HEPES (50 mM HEPES, 100 mM NaCl pH 7.0) or 10 mM NH4OH, pH 10.5 to yield a 1 mM sample. […] Titration experiments analyzed samples that contained 50 μM Heme in either Hepes buffer or 10 mM NH4OH. […]

[2] = Spectroelectrochemistry, midpoint potential; format: physicochemical
Procedure: Electrochemistry. The samples were placed in a spectroecltrochemical cell (1 mm quartz) equipped with a platinum mesh working electrode, platinum wire auxiliary electrode, and a Ag/AgCl reference electrode (Basi, Inc.). […] Each applied voltage setting was allowed to equilibrate for a minimum of 20 minutes prior to UV/visible spectral acquisition (Perkin Elmer, Lambda 950, UV/vis/NIR spectrophotometer). Midpoint potential analysis was achieved by fitting a standard Boltzmann curve to the obtained data (OriginPro 9.1).

[3] = Peroxidase activity assay (TMB oxidation with H2O2); format: biochemical; conditions: for peroxidase activity over extended times: TMB ~300 μM, H2O2 ~300 μM, Peptide 10 μM, Heme 1 μM, HEPES pH 7; for peroxidase activity (oxidation of TMB): assemblies prepared in pH 7 HEPES (micelles), assay at pH 7, peptide 10 μM, heme 1 μM
Procedure: Peroxidase Activity Assay. Peroxidase activity was monitored using a Varian Cary 50 spectrophotometer and the kinetics software package. 652 nm was the chosen wavelength based on its characterization in the literature (extinction coefficient: 39,000 M−1 cm-1). In a solution of HEPES buffer, pH 7 (50 mM HEPES 100 mM NaCl), a commercially available cocktail of 3,3′,5,5′-Tetramethylbenzidine (TMB) and H2O2 (both ˜3 mM, purchased from Sigma-Aldrich) was diluted 1:10. This was monitored for 1 minute to detect any changes in the background then protein was added (prepared as above at 500 μM peptide and 50 μM heme) to a final concentration of 10 μM (1 μM Heme). The reaction was allowed to run for 15 minutes to assure completion. In the case of Michaelis-Menten analyses two stock solutions of TMB (10 mg/mL, 41.6 mM in DMSO) and peroxide (52.8 mM diluted in H2O, H2O2 stock concentration standardized by the method of Klassen et. al.) (57) were made so the concentrations could be varied de-pending on the experiment. When varying peroxide concentration TMB was at a concentration of 300 μM. Michaelis-Menten curves were fit using Origin 9.1 software to the equation (v0=kCat[E]0[S]0/(KM+[S]0)). Catalytic efficiency values (kCat/KM) were determined by fitting the linear portion of those curves to the equation (v0=(kCat/KM)[E]0[S]0). Total amount of oxidized TMB was calcu-lated by integrating the absorbance at 652 nm (done with Origin 9.1 software), and dividing that value by the extinction coefficient.
Many natural and synthetic heme proteins display peroxidase activity, a natural reaction that catalyzes the oxidation of high potential substrates using hydrogen peroxide (H2O2). Here, we employed heme-peroxidase catalysis as a benchmark reaction to investigate how supramolecular morphology in PA-Heme assemblies can control catalytic reactivity. (53) We have chosen the established protocol where H2O2 activated by the XXHeme assemblies reacts with the colorless molecule 3,3′,5,5′-tetramethylbenzidine (TMB) to yield the oxidized blue diimine product and water. (54) All of these assays were carried out in pH 7 HEPES buffer. Peptide assemblies were prepared in either pH 7 HEPES or 10.5 NH4OH and then diluted 50 fold into the reaction mixture to maintain standard reaction conditions. […] The rates of these peptides are consistent with the Michaelis-Menten enzyme kinetics model (FIGS. 19C, 19D, and 21). […] Applicants show a clear and significant dependence of peroxidase activity dependent on supramolecular morphology. […] The micelle structures offer a more dynamic assembly that allows substrate to interact with the engineered heme active site.

| Substance | heme binding affinity (Kd), in words ([1]; fibers, compared with micelles) | midpoint potential (EM) vs. SHE ([2]; fibers, 10 mM NH4OH) | midpoint potential (EM) vs. SHE ([2]; micelles, HEPES) | peroxidase activity over extended times [3] | peroxidase activity (oxidation of TMB) [3] | kCat, in words ([3]; micelles, pH 7) | heme binding affinity (Kd), in words ([1]; micelles) |
| --- | --- | --- | --- | --- | --- | --- | --- |
| c16-AHL3K3-CO2H (Palmitoyl-AHLLLKKK-OH; also: heme) [AHHeme, XXHeme denotes the holo state] | binding affinity actually increases | −655 mV | −315 mV | most initial activity | varying degrees of peroxidase activity | – | – |
| c16-MHL3K3-CO2H (Palmitoyl-MHLLLKKK-OH; also: heme) [MHHeme, XXHeme denotes the holo state] | decrease in heme binding affinity | −442 mV | −312 mV | most initial activity | varying degrees of peroxidase activity | higher kCat, than HHHeme | – |
| c16-AAL3K3-CO2H (Palmitoyl-AALLLKKK-OH; also: heme) [AAHeme, control peptide amphiphile without heme coordination site; XXHeme denotes the holo state (coordinated heme)] | – | – | – | does not appear to have any activity | not reactive | – | – |
| c16-HHL3K3-CO2H (Palmitoyl-HHLLLKKK-OH; also: heme) [HHHeme, XXHeme denotes the holo state] | – | −333 mV | −270 mV | – | varying degrees of peroxidase activity; also recorded: low reactivity compared to the other peptides | – | highest binding affinity |
